These are literature values, as cited in US12465608B2, “Osimertinib for use in the treatment of non-small cell lung cancer” (AstraZeneca AB, priority 2019, dated 2025).

Data set [1] deals with patients with EGFR mutation-positive NSCLC.
Data set [2] deals with patients with advanced mutation-positive EGFR (Ex19del or L858R) NSCLC. Conditions: for median progression free survival (PFS): first-line therapy, FLAURA.
Data set [3] concerns patients with advanced EGFR mutation-positive NSCLC who were never- or light-former smokers. As to conditions: erlotinib combined with carboplatin plus paclitaxel; subgroup of patients with EGFR mutations.

`COc1cc2ncnc(Nc3ccc(F)c(Cl)c3)c2cc1NC(=O)/C=C/CN1CCCCC1` [dacomitinib, (2E)-N-{4-[(3-chloro-4-fluorophenyl)amino]-7-methoxyquinazolin-6-yl}-4-(piperidin-1-yl)but-2-enamide]: the “PFS hazard ratio (HR)” value in data set [1] (dacomitinib vs gefitinib, 95% CI 0.47-0.74, p<0.0001) is on record as 0.59. The “median PFS” value in data set [1] (first line treatment, EGFR mutation-positive NSCLC) was 14.7 months.
`C#Cc1cccc(Nc2ncnc3cc(OCCOC)c(OCCOC)cc23)c1` [erlotinib]: in data set [2], the “median progression free survival (PFS)” value is 10.2 months. Besides, the “side effects, combination vs erlotinib monotherapy” value in data set [3] is reported as “more side effects”.
Consider `C=CC(=O)Nc1cc(Nc2nccc(-c3cn(C)c4ccccc34)n2)c(OC)cc1N(C)CCN(C)C` [osimertinib, N-(2-{2-dimethylaminoethyl-methylamino}-4-methoxy-5-{[4-(1-methylindol-3-yl)pyrimidin-2-yl]amino}phenyl) prop-2-enamide], for which, in data set [2], the “median progression free survival (PFS)” value is reported as 18.9 months. Also, the “events of CNS progression, patients” value in data set [2] (irrespective of known or treated CNS metastases at trial entry) is reported as 6%. Also, in data set [2] (osimertinib vs erlotinib or gefitinib, 95% CI 0.37, 0.57, p<0.0001), the “PFS hazard ratio (HR)” value is 0.46. Also, the “median CNS PFS” value in data set [2] (patients with CNS metastases on a baseline brain scan) is on record as “not reached”. Further, in data set [2] (patients with CNS metastases on a baseline brain scan, vs standard EGFR-TKIs), the “reduction in the risk of CNS progression” value is listed as 52%. The “CNS PFS HR” value in data set [2] (patients with CNS metastases on a baseline brain scan, vs standard EGFR-TKIs, 95% CI 0.26-0.86, p=0.014) is 0.48.
